Here are results for 3 compounds from patent US20200237863A1, “Combination Therapy of Fractionated Radiation and SAPC-DOPS for the Treatment of Tumors” (University of Cincinnati, priority 2017, published 2020).

Residues, ends and D or L forms follow the SMILES beside them. *: point of attachment. Cbz = O=C(OCc1ccccc1)*; CH2F = FC*

Test [1] has as its system A2058, cfPac-1 and U87MG cell lines. Briefly: Cell viability (MTT) assay of serially irradiated cells treated with chemotherapeutic drugs. The class given is cell-based, human. The note with it: 5 Gy weekly for multiple weeks, drug 7 days after last irradiation, MTT 72 hr later. The procedure:
Non serially-irradiated cells are designated R0. Media was changed immediately after the irradiation and the cells were split every 3-4 days. Treatments were given 4-7 days following the last 5 Gy irradiation, when the surface PS is still elevated. A) Timeline of the treatment regime. B) Surface PS was determined by Annexin V-FITC staining on Day 4 following the last 5 Gy irradiation. Rx; x=15 for A2058 and 10 for cfPac-1 and U87MG. * p<0.05, ** p<0.01 compared to R0. Shown are the mean and S.D. C-E) Cells were serially irradiated with 5 Gy. (top panel, A2058 cells; middle panel, cfPac-1 cells; bottom panel, U87MG cells) C) 7 days later they were exposed to the indicated doses of radiation and cell viability was determined by MTT assay was performed 72 hr. later. Shown is the % of live cells with 100% as the normalized control for each cell line, * p<0.05. ** p<0.01, compared to R0. D) 7 days after the last 5 Gy irradiation, cells were treated with different doses of gemcitabine (GEM) temozolomide (TMZ) or cisplatin and cell viability was determined by MTT assay was performed 72 hr. later. * p<0.05, ** p<0.01, compared to R0 at the same dose of drug. E.) 7 days following the last 5 Gy irradiation, cells were treated with the indicated doses of SapC-DOPS (1 SapC:7 DOPS, Mol:Mol) and cell viability was determined by MTT assay was performed 72 hr. later. […]

In the next test the test system is cfPac-1 cells. Briefly: Flow cytometric analysis of Annexin V-FITC binding (surface PS) after irradiation. The class given is cell-based, human. To be noted: cfPac-1 cells irradiated at 10 Gy, 10 μM Z-VAD-fmk, assessed 24 hr later. The procedure: Unless otherwise stated, cells at 60-80% confluency were irradiated and then, after the appropriate time, were trypsinized, resuspended in complete medium, spun down, and washed once with PBS then resuspended in annexin V staining buffer. Cells (1×10^5) were incubated at room temperature in the dark for 15 minutes in a final volume of 100 μl containing 10 μl Annexin V-FITC (Invitrogen, Carlsbad, Calif.) and 2 μg/ml propidium iodide (PI, BD-Pharmingen, Eugene, Oreg.). Annexin V-FITC binding was measured by flow cytometry after adding 400 μl of annexin V binding buffer, using a BD Fortessa. Data was analyzed with BD FACS Diva. For quantifying the annexin V-FITC signal from living cells, PI positive dead cells were gated out and the annexin V-FITC signal was obtained from PI negative forward scattered, cells.
Cells were grown to 60-80% confluence in 60 mm dishes then exposed to (^137Cs) irradiation with a GammaCell 40 Exactor (Nordion international) at doses of 0, 2, 6, 10 or 16 Gy. The media was changed and the cells were processed for surface PS determination at the indicated times. Mice were irradiated at 10 Gy with an Xstrahl D3100 superficial systems (at 100 kV) with 2 cm cone and projected 1 cm deep.

In the case of `Nc1ccn([C@@H]2O[C@H](CO)[C@@H](O)C2(F)F)c(=O)n1` [gemcitabine], in test [1], the “sensitivity of serially irradiated cells to chemotherapeutic drugs (MTT cell viability) compared to R0” value was “more resistant”.
`N.N.[Cl][Pt][Cl]` [cisplatin]: the “sensitivity of serially irradiated cells to chemotherapeutic drugs (MTT cell viability) compared to R0” value in test [1] was “more resistant”.
For the compound `COC(=O)C[C@H](NC(=O)[C@H](C)NC(=O)[C@@H](NC(=O)OCc1ccccc1)C(C)C)C(=O)CF` [Z-VAD fmk] (Cbz-Val-Ala-Asp(OMe)-CH2F), the “radiation-induced surface PS elevation (Annexin V binding)” value in the test on cfPac-1 cells is “completely eliminated the radiation-induced surface PS elevation”.
